Assays:
[1] = system: 25-month-old C57BL/6JNia mice; assay: Survival study of old mice with compound added to the diet; type: in vivo, mouse; settings: compound added to diet from 25 months of age; log-rank p-value <0.05; FIGS. 6F-H
young UM-HET3 male mice = assay: Transcriptomic clock of expected maximum lifespan applied to liver and kidney of mice given compounds for 1 month; type: in vivo, mouse; settings: 1 month treatment, data pooled across tissues, adjusted p-value <0.05, FIG. 6E
Excerpt: To examine if longevity of rodents can be predicted based on gene expression data, we used 1,030 liver samples of mice and rats with known maximum lifespan to construct transcriptomic clock of expected lifespan.
To test if the constructed clock can be used to identify new longevity interventions, we applied it to the liver and kidney samples obtained from young UM-HET3 male mice subjected to 25 different compounds for 1 month together with age-matched controls. These compounds were chosen using a CMAP platform^30 and gene expression signatures of longevity identified in our previous studies^31.

mouse tissues = assay: Change of biological age (tAge), lifespan-adjusted multi-tissue transcriptomic clock applied to RNAseq datasets of treated mice (ClockBase); type: in vivo; settings: for effect on biological age (tAge) versus age-matched control mice: statistically significant effect on tAge, FIG. 6A
Excerpt: Preprocessing of the data prior to applying the clock included filtering of low-expressed genes using soft threshold (genes with less than 5 reads in more than 80% of samples were removed), mapping of gene IDs to the mouse Entrez IDs, RLE normalization (for RNA-seq data), log-transformation, scaling and ranking/YuGene transformation (optionally, for the corresponding clock models). Missing values corresponding to the clock genes not detected in the data were imputed with the average values precalculated during the training of the clock model.
Preprocessed gene expression profiles were used as an input for the clock, and tAges were returned by the model as an output. Differences between tAges of control and treated groups were assessed using linear regression model (for OSKM reprogramming datasets) and independent t-tests (for other applications). When multiple comparisons were assessed, obtained p-values were adjusted with Benjamini-Hochberg method.
To discover candidate interventions that slow down biological aging and extend mammalian lifespan and healthspan, we utilized ClockBase^25 and processed 1,349 publicly available RNAseq datasets corresponding to mouse tissues exposed to various pharmacological, dietary and genetic interventions. For every intervention, we used gene expression data to calculate tAges of subjected mice and compared them with tAges of age-matched control mice. […] In addition to the well-known lifespan-extending interventions, such as rapamycin, they included β3-adrenoceptor agonist CL 316,243^26,27 and the cardiac glycoside ouabain^28.

30-month-old mice = assay: Healthspan of old mice (gait speed, frailty index); type: in vivo, mouse
aged rodents = settings: cited from earlier work
[2] = cited from earlier work

| Compound | predicted effect on expected (maximum) lifespan according to the transcriptomic longevity clock (young UM-HET3 male mice) | effect on biological age (tAge) versus age-matched control mice (mouse tissues) | other results |
| --- | --- | --- | --- |
| COc1ccc(-c2ccc3c(N4CCOC[C@@H]4C)nc(N4CCOC[C@@H]4C)nc3n2)cc1CO [AZD-8055] | predicted to be beneficial for mouse longevity | – | lifespan of old male mice (survival) [1]: significantly extended lifespan |
| C[C@H](Cc1ccc2c(c1)OC(C(=O)[O-])(C(=O)[O-])O2)NC[C@H](O)c1cccc(Cl)c1.[Na+].[Na+] [CL 316,243] | – | decrease in biological age | – |
| COc1ccc(-c2ccc3c(N4CCOCC4)nc(N4C[C@@H](C)O[C@@H](C)C4)nc3n2)cc1CO [KU-0063794] | predicted to be beneficial for mouse longevity | – | lifespan of old male mice (survival) [1]: significantly extended lifespan; frailty index (30-month-old mice): decreased; gait speed (30-month-old mice): improved |
| CCCCCCCCCCCCCCCC(=O)OC[C@H](O)[C@H]1OC(=O)C(O)=C1O [ascorbyl-palmitate] | predicted to be beneficial for mouse longevity | – | – |
| C[C@@H]1O[C@@H](O[C@H]2C[C@@H](O)[C@]3(CO)[C@H]4[C@H](O)C[C@]5(C)[C@@H](C6=CC(=O)OC6)CC[C@]5(O)[C@@H]4CC[C@]3(O)C2)[C@H](O)[C@H](O)[C@H]1O [ouabain] | – | decrease in biological age | reduction of biological age (mouse tissues; 3-month treatment, 24-month-old mice, liver, FIG. 6B): ~20%; physical function of aged rodents (aged rodents): improve physical function; senolytic activity [2]: exhibit senolytic activity |
| Cc1onc(-c2ccccc2)c1-c1ccc(S(N)(=O)=O)cc1 [valdecoxib] | predicted to be beneficial for mouse longevity | – | – |
| interleukin 6: interleukin 6 injection | – | increase of biological age | – |

From patent US20260088124A1, “TRANSCRIPTOMIC CLOCKS OF BIOLOGICAL AGE AND LIFESPAN” (The Brigham and Women's Hospital, Inc., priority 2022, published 2026)
